In ChEMBL document CHEMBL5728935, “Heterocycles useful as anti-cancer agents” (2022):

What was measured:
[1] = target: CDK4/Cyclin D3 (Homo sapiens, UniProt P11802+P30281); experiment: (§1) Kinase Assay: In vitro enzymatic activity of the CDK isoforms CDK2/CycA2, CDK4/CycD3 and CDK6/cycD3 were measured using Mobility Shift Assay that monitors phosphorylation ratio of FAM labelled peptide (Peptide 18 for CDK2/CycA2, Peptide 8 for CDK4/CycD3 and CDK6/cycD3). CDK2/CycA2 and CDK6/cycD3 were assayed under buffer conditions in the presence of 50 mM HEPES (pH 7.5), 10 mM MgCl2, 0.0015% Brij-35, and 2 mM dithiothreitol, CDK4/CycD3 with buffer condition of 20 mM HEPES (pH 7.5), 10 mM MgCl2, 0.01% Triton X-100, and 2 mM dithiothreitol. Prepare compounds to 50× of the final desired highest inhibitor concentration by 100% DMSO and serial dilution in 3-fold for total of 10 concentrations. […] After assay for 60 min, 180 min, 60 min respectively at 28° C., reactions were terminated with stop solution (50 mM EDTA, 0.015% Brij-35, 0.2% Coating Reagent #3 and 100 mM HEPES (pH 7.5)). Collect conversion on Caliper EZ Reader.; type: protein-complex assay
[2] = target: CDK2/Cyclin A2 (Homo sapiens, UniProt P24941); experiment: as §1; type: protein-complex assay

CDK4/Cyclin D3, sequence (P11802 whole entry, canonical isoform): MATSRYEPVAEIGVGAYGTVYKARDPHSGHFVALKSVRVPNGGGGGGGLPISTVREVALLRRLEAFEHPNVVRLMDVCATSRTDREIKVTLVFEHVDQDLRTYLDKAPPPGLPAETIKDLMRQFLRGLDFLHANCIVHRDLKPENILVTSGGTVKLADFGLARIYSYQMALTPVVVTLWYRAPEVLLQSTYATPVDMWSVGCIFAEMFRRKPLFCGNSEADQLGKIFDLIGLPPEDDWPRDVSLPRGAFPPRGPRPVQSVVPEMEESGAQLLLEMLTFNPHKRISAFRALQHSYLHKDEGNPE
CDK4/Cyclin D3, sequence (P30281 whole entry, canonical isoform): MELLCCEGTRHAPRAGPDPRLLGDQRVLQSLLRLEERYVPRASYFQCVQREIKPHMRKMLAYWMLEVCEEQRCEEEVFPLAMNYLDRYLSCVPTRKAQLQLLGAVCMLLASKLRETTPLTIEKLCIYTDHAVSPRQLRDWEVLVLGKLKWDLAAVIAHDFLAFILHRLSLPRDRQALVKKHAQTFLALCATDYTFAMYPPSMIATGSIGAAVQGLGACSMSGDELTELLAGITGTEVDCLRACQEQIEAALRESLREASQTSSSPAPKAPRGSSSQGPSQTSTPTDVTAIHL

IC50 [1] | IC50 [2] | Structure (SMILES)
< 0.1 µM | – | CC(=O)c1c(C)c2cnc(Nc3ccc(N4CC5CNCC(C4)C5(F)F)cn3)nc2n(C2CCCC2)c1=O
– | < 0.01 µM | CC(=O)c1c(C)c2cnc(Nc3ccc4c(c3)OC[C@H]3CNCCN43)nc2n(C2CCCC2)c1=O
– | < 0.01 µM | CC(=O)c1c(C)c2cnc(Nc3ccc4c(c3)OC[C@@H]3CNCCN43)nc2n(C2CCCC2)c1=O
